Test results published in US11020360B2, “Methods, compounds, compositions and vehicles for delivering 3-amino-1-propanesulfonic acid” (Bellus Health, Inc., priority 2006, dated 2021).

How the values were obtained:
[1] = Bioavailability of exemplary compounds in mice (3APS quantified in plasma); format: in vivo; conditions: mouse, oral, 3APS in plasma
Experimental: Selected exemplary compounds were tested for bioavailability in mice. Bioavailability estimates are performed for 3APS after administration of molar equivalent the selected compounds. […] The animals are anesthetized with isoflurane before blood collection (approximately 45 sec). Samples are collected at 5, 30, 60, 120, 180, 240 and 360 min post intravenous administration and at 15, 30, 60, 120, 180, 240 and 360 min post oral administration. One animal is used to obtain a baseline sample (pre-dose sample). Blood samples are collected into Sarstedt™ micro tubes (EDTA KE/1.3 ml), kept on ice until centrifugation at 4° C. at a minimum speed of 3000 rpm (1620 G) for 10 min. Plasma samples are transferred into Eppendorf™ tubes, immediately placed on dry ice and stored at −80° C. Plasma samples are stored frozen at […] pending analysis.
Compounds in mouse plasma are extracted using protein precipitation. Quantitation of 3APS in mouse plasma matrix is achieved using LC-MS detection. Sample concentration is calculated using a calibration curve.

[2] = Metabolic profiling of 14C-3APS in dogs; format: in vivo, male Beagle dogs; conditions: Dog plasma
Experimental: Three single dose studies were conducted in mice, rats and dogs to determine the metabolic profile of ^14C-3APS in plasma, urine and feces. In the first study, twenty-seven male CD-1 mice received a single dose of 100 mg/kg (20 μCi/animal) of ^14C-3APS by oral gavage. Blood samples (3 animals/time point) were collected for 12 hr following drug administration while urine and feces (3 animals/time point) samples were collected for 96 hr. In the second study, eight male Sprague-Dawley rats received a single dose of 100 mg/kg (50 μCi/animal) of ^14C-3APS by oral gavage while in the third study, three male Beagle dogs received a single dose of 100 mg/kg (30 μCi/kg) of ^14C-3APS by oral gavage. For the rat and dog studies, blood samples were collected for 24 hr following drug administration while urine and feces samples were collected for 72 hr. All samples were analyzed for total radioactivity using appropriate sample preparation procedures and scintillation counting. Plasma and urine samples were also analyzed for 3APS and 3APS metabolites (2-carboxyethanesulfonic acid, 3-hydroxy-1-propanesulfonic acid and 3-acetylamino-1-propanesulfonic acid) concentrations using qualified HPLC and MS/MS methods.

[3] = analyte after single oral 100 mg/kg 14C-3APS
[4] = male, Beagle, dog, plasma, po, 100 mg/kg, analyte after single oral 100 mg/kg 14C-3APS

Tmax [1]: 15 min | AUC0-τ [2, 3]: 24.5 µmol·min/mL | AUC∞ [2, 3]: 25.3 µmol·min/mL | T1/2 ([2]; analyte after single oral 100 mg/kg 14C-3APS, 100 mg/kg): 302 min | Tmax [2, 4]: ~30 min | half-life [2, 4]: ~300 min | Cmax ([2]; male, Beagle, analyte (3APS or metabolite) after single oral 100 mg/kg 14C-3APS): 250 µM
SMILES: NCCCS(=O)(=O)O [Compound 3APS, 3-amino-1-propanesulfonic acid]
